Test results reported in patent US20230119479A1, “A HISTONE DEACETYLASE INHIBITOR HAVING A NITROGEN-CONTAINING AROMATIC HETEROCYCLYL GROUP” (SHIONOGI & CO., LTD., priority 2019, published 2023).

Key:
[1] = biological target: T1, HDAC2 Human recombinant C-terminal FLAG-tag (Homo sapiens, UniProt Q92769); assay: Measurement of HDAC2 enzyme inhibitory activity (HTRF); type: biochemical; conditions: recombinant HDAC2, H3K9ac peptide, 3 hours room temperature; read-out: HDAC2 IC50
T1 construct: FLAG (C); purchased BPS Bioscience 50052
T1 sequence (Q92769 whole entry): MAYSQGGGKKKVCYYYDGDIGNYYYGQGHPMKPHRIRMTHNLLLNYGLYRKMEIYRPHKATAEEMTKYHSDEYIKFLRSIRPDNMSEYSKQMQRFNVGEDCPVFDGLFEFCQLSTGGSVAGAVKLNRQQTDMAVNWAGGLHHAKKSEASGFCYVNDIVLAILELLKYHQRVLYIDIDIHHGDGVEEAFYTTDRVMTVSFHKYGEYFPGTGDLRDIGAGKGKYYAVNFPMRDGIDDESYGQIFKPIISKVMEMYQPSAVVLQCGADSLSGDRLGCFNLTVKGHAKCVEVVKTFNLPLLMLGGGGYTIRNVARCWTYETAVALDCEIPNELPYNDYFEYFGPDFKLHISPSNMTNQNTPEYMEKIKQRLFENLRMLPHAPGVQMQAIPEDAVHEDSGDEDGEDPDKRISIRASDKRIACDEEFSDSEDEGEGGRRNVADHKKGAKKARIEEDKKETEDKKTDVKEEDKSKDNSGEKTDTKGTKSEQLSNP
Procedure, shortened: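 Compounds were tested at 8 points in 3-fold dilutions from 99 μM final (n=2) against FLAG-tagged HDAC2 with biotinylated H3K9ac (1-21) peptide (0.6 μM as added). The reaction ran 3 h at room temperature in Tris pH 8.0 buffer, then was stopped with SAHA. Deacetylated product was detected by HTRF (Eu-anti-H3K9me0 antibody, streptavidin-XL665) as the 665/615-620 nm ratio.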

[2] = Platelet toxicity test using human blood progenitor cells (WST); type: cell-based; conditions: human bone marrow CD34+ progenitor cells, maximum concentration 25 μM
Protocol: Test Example 2: Platelet Toxicity Test Using Human Blood Progenitor Cells
Human bone marrow CD34+ progenitor cells (Lonza, 2M-101B) stored at −80° C. were thawed, spun down at 150 g for 10 minutes at 20° C., and a medium (StemSpan Expansion Supplement, STEM CELL TECHNOLOGIES, ST-02696) to which cytokines (StemSpan SFEM II, STEM CELL TECHNOLOGIES, ST-09655) was added was added to adjust to 2×10^4/well, the mixture was seeded in 12well non-coat dish (Corning, 3513), was incubated for 10 days at 37° C., 5% CO2. After 10 days, the cells were collected and spun down at 150 g for 10 minutes at 20° C., and a medium (StemSpan Expansion Supplement) containing cytokines (StemSpan SFEM II) was added so that the number of cells became 2×10^5 cells/ml. 50 μl of the cell suspension was seeded to each well of a 96-well plate (Corning, 3596) and allowed to stand overnight in an incubator at 37° C., 5% CO2. The next day, 50 μl of the test compound was treated to each well and allowed to stand for 48 hours in the incubator at 37° C., 5% CO2 (n=2). At this time, the test compound dissolved in 100% DMSO was serially diluted with DMSO at a 3-fold ratio, and then a medium containing cytokine was added to adjust the final concentration to 25, 8.33, 2.78, 0.93, 0.31, 0.1 μM. After that, 10 μl of WST (Cell count reagent SF, Nacalai Tesque Inc., 07553-44) was added to each well, and the mixture was allowed to stand in the incubator for 4 hours at 37° C., 5% CO2, and then the multi-label reader 2030 ARVO X4 (PerkinElmer) was used to measure the absorbance. At this time, the absorbance at 450 nm and the absorbance at 620 nm were obtained, and the difference between 450 nm and 620 nm was used as the measured value. The measured values were analyzed by Excel and TIBCO Spotfire, and IC50 values were calculated. At this time, for control (−), the well without cells was set as n=6 for one row, and the average value was calculated, and for control (+), the well in which DMSO was added to the cells so as to have the same concentration as the compound treatment group was set as n=6 for one row, and the average value was calculated and corrected for each plate. For the test compound, the average value of n=2 was used.

[3] = Metabolism stability test; type: in vitro ADME; conditions: human liver microsomes 0.5 mg protein/mL, 30 minutes, 37° C., NADPH
Protocol: Using commercially available pooled human hepatic microsomes, a compound of the present invention is reacted for a constant time, and a remaining rate is calculated by comparing a reacted sample and an unreacted sample, thereby, a degree of metabolism in liver is assessed.
A reaction is performed (oxidative reaction) at 37° C. for 0 minute or 30 minutes in the presence of 1 mmol/L NADPH in 0.2 mL of a buffer (50 mmol/L Tris-HCl pH 7.4, 150 mmol/L potassium chloride, 10 mmol/L magnesium chloride) containing 0.5 mg protein/mL of human liver microsomes. After the reaction, 50 μL of the reaction solution is added to 100 μL of a methanol/acetonitrile=1/1 (v/v), mixed and centrifuged at 3000 rpm for 15 minutes. The compound of the present invention in the supernatant is quantified by LC/MS/MS or Solid Phase Extraction (SPE)/MS, and a remaining amount of the compound of the present invention after the reaction is calculated, letting a compound amount at 0 minute reaction time be 100%. The hydrolysis reaction is carried out in the absence of NADPH, and the glucuronidation reaction is carried out in the presence of 5 mmol/L UDP-glucuronic acid instead of NADPH, and the same operation is carried out thereafter. The dilution concentration and dilution solvent are changed as necessary.

[4] = test system: HDACs other than HDAC2 (HDAC2 knockout K562 cells); assay: Evaluation of HDAC2 selectivity: H3K9 histone acetylation in HDAC2 knockout K562 cells (AlphaLISA); type: cell-based; conditions: Homo sapiens, maximum concentration 83.3 μM, 100% = SAHA-treated group, read-out: maximum inhibition rate (H3K9 histone acetylation);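 also: 0% inhibition equals DMSO-treated group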
Protocol: Test Example 3: Evaluation of HDAC2 Selectivity
K562 cells were cultured in RPMI1640 medium (SIGMA, R8758) containing 10% FBS (Hyclone, SH30070.03) and 1% penicillin streptomycin (Nacalai Tesque, 26252-94). CompoZr (registered trademark) Zinc Finger Nuclease (Merck) targeting HDAC2 sequences was transfected into K562 cells by electroporation using Nucleofector (Lonza). The cells after transfection were subjected to limiting dilution, and DNA sequencing was performed on the cell clones in which mutations were detected by the PCR method. Cell clones lacking a base number that was not a multiple of 3 in both alleles were identified, and a single-cell cloning was performed on the cell clones to produce HDAC2 knockout K562 cells. It was confirmed that the expression of HDAC2 was not detected by Western blotting in the prepared cells.
By evaluating the H3K9 histone acetylation-enhancing activity of the test compound using HDAC2 knockout K562 cells, the inhibitory activity against HDACs other than HDAC2 was evaluated.
HDAC2 knockout K562 cells stored in liquid nitrogen were thawed and cultured in RPMI1640 medium (Nacalai Tesque, 30264-85) for 2 to 4 days. Using Echo555 (Beckman Coulter), the test compound was dispensed to the assay plate (Corning, 4513) at 37.5 nL/well, and then HDAC2 knockout K562 cells were seeded to 125 cells/4.5 μL/well, and stirred. At this time, the test compound was treated at 8 points (n=2) in the 3-fold dilution series from the maximum concentration of 83.3 μM. After culturing at 37° C. and 5% CO2 overnight, 1.5 μL/well of Lysis buffer (PerkinElmer, AL009F1) was added, and after incubating at room temperature for 15 minutes, 3 μL/well of Extraction buffer (PerkinElmer, AL009F2) was added and the mixture was incubated for 10 minutes at room temperature. Then, 5× antibody solution (prepared by diluting anti-H3K9 Acceptor beads (PerkinElmer, AL114M) 75-fold with a detection buffer prepared by diluting 10×Cell-Histone Detection buffer (PerkinElmer, AL009F3) 10-fold with ultrapure water, and diluting Biotinylated anti H3 antibody (PerkinElmer, AL118M) diluted 150 times with the detection buffer) was added at 3 μL/well, and after incubating at room temperature for 60 minutes, then 5× donor beads solution (prepared by diluting Streptavidin Donor beads (PerkinElmer, 6760002) 75 fold with the detection buffer) was added at 3 μL/well, and the mixture was incubated again at room temperature for 60 minutes, and then the emission value was measured using PHERAstar (BMG LABTECH) (excitation=680 nm, […]). […] For cell toxicity, cell viability rate was evaluated by the PrestoBlue method.

IC50 [1]	remaining rate after reaction [3]	Structure (SMILES)	IC50 at 48 h [2]	inhibition at up to 83.3 µM [4]
130 nM		Nc1ccc(-c2ccc(F)nc2)cc1NC(=O)c1ccc(N2CCOCC2)cn1 [Compound I-093]	> 25000 nM	
81 nM	93.5%	CN(C)c1cnc(C(=O)Nc2cc(-c3cnn(C)c3)ccc2N)cn1 [Compound I-179]		9%
180 nM		Nc1ccc(-c2ccc(F)nc2)cc1NC(=O)c1ccc(OCF)cn1 [Compound I-142]	> 25000 nM	8%
160 nM		Cn1cc(-c2ccc(N)c(NC(=O)c3cnc(-c4cnn(C)c4)cn3)c2)cn1 [Compound I-036]	> 25000 nM	8%
160 nM		COc1ccc(C(=O)Nc2cc(-c3ccc(F)nc3)ccc2N)nc1 [Compound I-124]	> 25000 nM	9%
360 nM	91.4%	Cc1cnc(C(=O)Nc2nc(-c3ccccc3)ccc2N)cn1 [Compound I-169]		
110 nM		COCCOc1ccc(C(=O)Nc2cc(-c3ccc(F)nc3)ccc2N)nc1 [Compound I-127]	> 25000 nM	7%
170 nM		CCc1cnc(C(=O)Nc2cc(-c3cnn(C)c3)ccc2N)cn1 [Compound I-250]		5%
230 nM		Nc1ccc(-c2ccc(F)nc2)cc1NC(=O)c1ccc(C(F)F)cn1 [Compound I-144]	> 25000 nM	7%
170 nM	92%	CN(C)c1ccc(C(=O)Nc2cc(-c3cnn(C)c3)ccc2N)nc1 [Compound I-177]		
350 nM		Nc1ccc(-n2cccc2)nc1NC(=O)c1cnc(C2CC2)cn1 [Compound I-161]	> 25000 nM	9%
140 nM		CCOCCOc1cnc(C(=O)Nc2cc(-c3ccc(F)nc3)ccc2N)cn1 [Compound I-126]	> 25000 nM	5%
340 nM		COc1ccc(C(=O)Nc2cc(-c3cnn(C)c3)ccc2N)nn1 [Compound I-254]		3%
50 nM		CC(=O)Nc1ccc(C(=O)Nc2cc(-c3ccc(F)nc3)ccc2N)nc1 [Compound I-280]		8%
		Nc1ccc(-c2ccccc2)nc1NC(=O)c1cnc(C2CC2)cn1 [Compound I-158]	> 25000 nM	7%
250 nM	97.9%	Cn1cc(-c2ccc(N)c(NC(=O)c3cnc(OCC(F)F)cn3)c2)cn1 [Compound I-152]		
94 nM		Nc1ccc(-c2ccc(F)nc2)cc1NC(=O)c1cnc(C2CC2)cn1 [Compound I-129]	> 25000 nM	
250 nM		Nc1ccc(-c2ccc(F)nc2)cc1NC(=O)c1cnc(OCC2CC2)cn1 [Compound I-122]	> 25000 nM	3%
		Nc1ccc(-c2ccc(F)nc2)nc1NC(=O)c1cnc(C2CC2)cn1 [Compound I-157]	> 25000 nM	7%
230 nM		Cn1cc(-c2ccc(C(=O)Nc3nc(-c4cccs4)ccc3N)nn2)cn1 [Compound I-028]	> 25000 nM	8%
240 nM		Cn1cc(-c2cc(C(=O)Nc3cc(-c4ccc(F)nc4)ccc3N)no2)cn1 [Compound I-198]	> 25000 nM	5%
150 nM	94.9%	Nc1ccc(-c2ccc(F)nc2)cc1NC(=O)c1ccc2ocnc2n1 [Compound I-148]		
430 nM		Nc1ccc(-c2ccc(F)nc2)cc1NC(=O)c1cnc(OC(F)F)cn1 [Compound I-132]	> 25000 nM	6%
230 nM		Cn1cc(-c2ccc(N)c(NC(=O)c3cc4ccccc4cn3)c2)cn1 [Compound I-141]	> 25000 nM	6%
190 nM	101%	Nc1ccc(-n2cccc2)nc1NC(=O)c1cnc(N2CCOCC2)cn1 [Compound I-030]		9%
180 nM		CCOc1cnc(C(=O)Nc2cc(-c3cnn(C)c3)ccc2N)cn1 [Compound I-139]	> 25000 nM	
		Nc1ccc(-n2cccc2)nc1NC(=O)c1ccc(C2CC2)cn1 [Compound I-160]	> 25000 nM	6%
200 nM		Cn1cc(-c2ccc(N)c(NC(=O)c3ccc(C4CC4)cn3)c2)cn1 [Compound I-112]	> 25000 nM	
240 nM		Nc1ccc(-c2ccc(F)nc2)cc1NC(=O)c1cnc(OCF)cn1 [Compound I-121]	> 25000 nM	
